Measured values reported in US12310942B2, “Pharmaceutical compositions comprising statins and hyaluronic acid derivatives” (FIDIA FARMACEUTICI S.p.A., priority 2019, dated 2025).
Like-named read-outs stand apart in the source and are kept apart here.

Tested on: bovine cartilage biopsies
Conditions: IL-1β and OSM 10 ng/mL, 21 days, FIG. 3
Procedure: For this purpose, cartilage biopsies were collected from the patello-femoral sulcus and femoral condyles from the femur of 1 adult bovine (15-18 months). […] The biopsies (Ø=3 mm) were taken with a steel punch.
Each biopsy was transferred to a well of a 48-well MW and washed twice with 500 μL PBS 1× (Euroclone, cat. no. ECB4004L, Italy). […] The biopsies were incubated for 24 h at 37° C. 5% CO2. After incubation, the biopsies were washed with 500 μL PBS 1×, and 500 μL DMEM/F-12+2% FBS containing the dilution of the compound to be tested were added to all the wells. Each statin was used at the concentrations of 10 μM and 2.5 μM. 4 biopsies were used for each condition. After 7, 14 and 21 days, the biopsy culture medium was aspirated and replaced with 500 μL of fresh culture medium containing the appropriate concentrations of pro-inflammatory cytokines (IL-1β and OSM, 10 ng/mL) and the active ingredients to be tested. The biopsy culture medium was harvested after 21 days and used to determine the soluble collagen content. The Sircol assay was conducted according to the manufacturer's instructions, and quantitation was effected by spectrophotometric reading at 555 nm.

Row | SMILES | collagen release induced by IL-1β and OSM (statin 2.5 μM) | collagen release induced by IL-1β and OSM (statin 10 μM)
1 | CC(C)c1c(C(=O)Nc2ccccc2)c(-c2ccccc2)c(-c2ccc(F)cc2)n1CC[C@@H](O)C[C@@H](O)CC(=O)O [atorvastatin] | significant reduction in collagen release | significant reduction in collagen release
2 | CC[C@H](C)C(=O)O[C@H]1C[C@@H](C)C=C2C=C[C@H](C)[C@H](CC[C@@H]3C[C@@H](O)CC(=O)O3)[C@H]21 [lovastatin] | values comparable to those of the untreated control | significant reduction in collagen release
